According to patent publication US20050080046A1, “Storage stable eplerenone formulation” (priority 2002, published 2005):
≈ marks a conversion by molar mass, not a printed value.

Tests used:
[1] = Storage stability of eplerenone solution formulations SF-2 to SF-5 at different pH, HPLC (Example 2); type: physicochemical; conditions: storage at various temperatures and for various time periods
From the text: The pH of each formulation was adjusted as indicated.
Aliquots of each solution formulation were stored at four different temperatures for a period of 12 weeks. Degradation of eplerenone was monitored via high performance liquid chromatography (HPLC) throughout storage.
Cells in Table 3 which have the symbol “--” therein indicate that no stability data was collected for that particular time and storage temperature.

[2] = Solubility of eplerenone in pure solubilizers at room temperature; type: physicochemical; conditions: organic solvent or mixture
Procedure: Preparation of a pharmaceutically acceptable parenteral eplerenone formulation is therefore made difficult by the fact that (a) the solubility of eplerenone in many otherwise parenterally acceptable solubilizers, even in such solubilizers in pure form, is very low, (b) eplerenone dose requirements are relatively high (e.g. about 50 mg/day or more), and (c) the concentration and/or total amount of many parenterally acceptable solubilizers which can be safely parenterally delivered to a subject is relatively low.

solubility ([2]; pure glycerin, room temperature): < 1600 µg/mL
solubility ([2]; pure polyethylene glycol 400, room temperature): 3300 to 5700 µg/mL (≈ 7.96 to 13.8 mM)
solubility ([2]; pure propylene glycol, room temperature): < 300 µg/mL
Structure (SMILES): COC(=O)[C@@H]1CC2=CC(=O)CC[C@]2(C)[C@@]23O[C@@H]2C[C@@]2(C)[C@@H](CC[C@@]24CCC(=O)O4)[C@H]13 [eplerenone, methyl hydrogen 9,11α-epoxy-17α-hydroxy-3-oxopregn-4-ene-7α,21-dicarboxylate, γ-lactone]
stability of eplerenone in solution by pH (in words) [1]: more stable in a solution maintained at a pH of 5 than at a pH of 2, 7 or 9
